In assay [1] the test system is Trypanosoma cruzi. The experiment in a line: In vivo trial on Trypanosoma cruzi in the chronic phase, Balb/c mice: parasitemia and mortality. The conditions noted are these: 50 mg/kg/d orally for 20 days. An excerpt:
(§1) The Balb/c-type mice are bred in the animal house of the Health Sciences Research Institute (IICS, Asuncion, Paraguay) and are 6 to 8 weeks old at the time of the experimental protocols. For this experimental protocol, the CL strain (Brener clone) of T. cruzi is used in the circulating form (trypomastigotes), and the strain is maintained in routine culture on an animal model by passage every 14 days. The animals are infected intraperitoneally with 1000 parasites. Under these experimental conditions, the parasites develop slowly; this strain produces a parasite peak 21 to 28 days after infection. The majority of the mice survive (70-80%) with slight deterioration of their general physical condition and with absent or subpatent parasitemia. Each week, the number of parasites is verified by taking a blood sample from the tail of the mouse.
[…] The mice are then divided up into groups randomly. The treatments with benznidazole, the reference medicinal product, are administered at a concentration of 50 mg/kg or 200 mM/kg per day for 20 days, orally. Canthin-6-one is administered either orally or subcutaneously at a concentration of 5 mg/kg or 20 mM/kg per day for 20 days. A total dichloromethane extract of Zanthoxylum chiloperone var. angustifolium trunk bark is administered orally or subcutaneously at a concentration of 50 mg/kg per day for 20 days. For administration, the active principles are dissolved in 50 μl of a phosphate buffered saline (PBS) solution. The untreated and infected mice receive 50 μl of PBS.
• Weekly counting of the number of parasites circulating in the peripheral blood throughout the experiment, i.e. 30 weeks. • Observation of mortality. • Three serological evaluations, 45 days before the beginning of treatments, 10 days after treatment has stopped and 75 days post-treatment. The serological evaluation is carried out using a Chagas ELISA assay (enzyme linked immunoassay) kit, IISC, Asuncion. The optical densities are measured with an ELISA plate reader (Titerek, Unistan, I). Statistical Studies:
(§2) The mean and the standard deviations of each group are calculated, and the differences between the groups are determined by means of the Student's test and the Kruskal-Wallis non-parametric analysis of variance test. The comparisons are carried out between the untreated group and the treated groups, P<0.05.

The test system of assay [2] is Trypanosoma cruzi. As to the kind of experiment: In vivo trial on Trypanosoma cruzi in the acute phase, Balb/c mice: serological evaluation (anti-T. cruzi ELISA). The note with it: 50 mg oral. An excerpt: (§3) Animals and parasites: The Balb/c-type mice are bred in the animal house of the Health Sciences Research Institute (IICS, Asuncion, Paraguay) and are 6 to 8 weeks old at the time of the experimental protocols.
(§4) For these trials, the CL strain (Brener clone) of T. cruzi is used in the circulating form of the parasite (trypomastigotes). The animals are infected intraperitoneally with 5000 parasites; this strain produces its parasite peak 21 to 25 days after infection. Each week, the number of parasites is verified by means of a blood sample taken from the tail of the mouse.
(§5) Infection and treatment: The treatments with benznidazole, the reference medicinal product, and canthin-6-one begin 11 days after parasitic infection, at a rate of 50 mg/kg or 200 mM/kg for benznidazole and at the concentration of 5 mg/kg or 20 mM/kg for canthin-6-one. The duration of the treatments is fixed at two weeks and the chosen route of administration is oral for benznidazole and canthin-6-one; furthermore, a group of mice is treated with canthin-6-one administered subcutaneously. The untreated and infected mice are given 100 μl of a phosphate buffered saline solution.
(§6) • weekly counting of the number of parasites circulating in the peripheral blood throughout the experiment, i.e. 10 weeks; • observation of mortality; • two serological evaluations: 40 days post-infection, i.e. 15 days after treatment has been stopped, and 68 days post-infection, i.e. 45 days post-treatment. The serological evaluation is carried out by means of a Chagas ELISA assay (enzyme linked immunoassay) kit, IISC, Asuncion. The optical densities are measured with an ELISA plate reader (Titerek, Unistan, I).
(§7) Statistical studies: The mean and the standard deviations of each group are calculated, the differences between the groups are determined by means of the Student's test and the Kruskal-Wallis non-parametric analysis of variance test. The comparisons are carried out between the nontreated group and the treated groups, P<0.05.
In general terms: ELISA stands for enzyme-linked immunosorbent assay.

For assay [3], the system named is Trypanosoma cruzi. The experiment in a line: In vivo trial on Trypanosoma cruzi in the acute phase, Balb/c mice: parasitological evaluation (parasites in peripheral blood). The conditions noted are these: for number of parasites ± standard deviation: 50 mg/kg oral, n = 8.
Source text: as §3, §4, §5, §6, §7

Assay [4] deals with Trypanosoma cruzi. As to the kind of experiment: In vivo trial on Trypanosoma cruzi in the chronic phase, Balb/c mice: serological evaluation (ELISA). The note with it: 50 mg/kg/d orally.
Source text: as §1
For this long-duration experiment, the treatments begin 120 days after parasitic infection, when the parasitemia is subpatent in all the mice. The mice are then divided up into groups randomly. The treatments with benznidazole, the reference medicinal product, are administered at a concentration of 50 mg/kg or 200 mM/kg per day for 20 days, orally. Canthin-6-one is administered either orally or subcutaneously at a concentration of 5 mg/kg or 20 mM/kg per day for 20 days. A total dichloromethane extract of Zanthoxylum chiloperone var. angustifolium trunk bark is administered orally or subcutaneously at a concentration of 50 mg/kg per day for 20 days. For administration, the active principles are dissolved in 50 μl of a phosphate buffered saline (PBS) solution. The untreated and infected mice receive 50 μl of PBS.
• Weekly counting of the number of parasites circulating in the peripheral blood throughout the experiment, i.e. […] The serological evaluation is carried out using a Chagas ELISA assay (enzyme linked immunoassay) kit, IISC, Asuncion. The optical densities are measured with an ELISA plate reader (Titerek, Unistan, I). Statistical Studies:
as §2

Take `O=C(Cn1ccnc1[N+](=O)[O-])NCc1ccccc1` [Benznidazole, benznidazole, reference compound]: the “Negative parasitemia/number of surviving mice” value in the assay with Trypanosoma cruzi [1] (0 days post-treatment) is 5/5; with Trypanosoma cruzi [1] (10 d post-treatment), 2/5; in the assay on Trypanosoma cruzi [1] (40 d post-treatment), 5/5; with Trypanosoma cruzi [1] (60 d post-treatment), 5/5. Moreover, the “1st serology (anti-T. cruzi ELISA, optical density)” value in the assay with Trypanosoma cruzi [2] (40 days post-infection, 15 days post-treatment) came out at 0.1692 ± 0.1179. In addition, in the assay with Trypanosoma cruzi [2] (68 days post-infection, 45 days post-treatment), the “2nd serology (anti-T. cruzi ELISA, optical density)” value is on record as 0.7934 ± 0.8607. The “eradication of Trypanosoma cruzi from the infected organism, acute phase” value with Trypanosoma cruzi [3] (50 mg/kg/d) is “does not make it possible to obtain”. Besides, the “number of parasites ± standard deviation” value in the assay on Trypanosoma cruzi [3] (day 4 post-infection (before treatment), two weeks from day 11) was found to be 0; with Trypanosoma cruzi [3] (day 11 post-infection (period of treatment)) it was 0; with Trypanosoma cruzi [3] (day 18 post-infection (period of treatment)) it was 34.9 ± 98.6; with Trypanosoma cruzi [3] (day 25 post-infection (period of treatment)), 250.1 ± 503.5; with Trypanosoma cruzi [3] (day 32 post-infection, two weeks from day 11), 296.8 ± 625.5; with Trypanosoma cruzi [3] (day 39 post-infection, two weeks from day 11) it was 118.3 ± 192.9. Besides, the “number of parasites ± standard deviation” value in the assay on Trypanosoma cruzi [3] (day 45 post-infection, two weeks from day 11) came out at 300.8 ± 431.6; in the assay with Trypanosoma cruzi [3] (day 53 post-infection, two weeks from day 11) it was 23.3 ± 65.8; in the assay on Trypanosoma cruzi [3] (day 60 post-infection, two weeks from day 11), 65.3 ± 93.2; with Trypanosoma cruzi [3] (day 68 post-infection, two weeks from day 11), 9.4 ± 26.5. For the same compound, the “ELISA (optical density ± standard deviation)” value with Trypanosoma cruzi [4] (10 d post-treatment) is 1.712 ± 0.473; with Trypanosoma cruzi [4] (43 days before treatment (baseline)), 2.072 ± 0.220; in the assay on Trypanosoma cruzi [4] (75 d post-treatment) it was 1.979 ± 0.350.

For the origin of these results see US7705013B2, “Use of canthin-6-one, plant extracts containing same and derivatives thereof in the treatment of trypanosomiases” (Institut de Recherche pour le Developpement, priority 2002, dated 2010).
